# Test system: Plasmodium falciparum
# Assay: Growth inhibition of chloroquine-resistant Plasmodium falciparum K1 by [3H]hypoxanthine uptake
# Format: functional, organism-based
row,Substance,IC50
1,1-(1-Naphthalenyl)-3-ferrocenyl-2-propen-1-one,47.4 µM
2,"1-(2,3,4-Trimethoxyphenyl)-3-ferrocenyl-2-propen-1-one",22.5 µM
3,"1-(2,4-Dihydroxyphenyl)-3-ferrocenyl-2-propen-1-one",31.5 µM
4,"1-(2,4-Dimethoxyphenyl)-3-ferrocenyl-2-propen-1-one",24.5 µM
5,1-(2-Hydroxyphenyl)-3-ferrocenyl-2-propen-1-one,73.5 µM
6,1-(2-Naphthalenyl)-3-ferrocenyl-2-propen-1-one,21 µM
7,1-(3-pyridyl)-3-ferrocenyl-2-propen-1-one,4.6 µM
8,1-(4-Butoxyphenyl)-3-ferrocenyl-2-propen-1-one,80 µM
9,1-(4-Ethoxyphenyl)-3-ferrocenyl-2-propen-1-one,200 µM
10,1-(4-Hydroxyphenyl)-3-ferrocenyl-2-propen-1-one,36 µM
11,1-(4-Methoxyphenyl)-3-ferrocenyl-2-propen-1-one,410 µM
12,1-(phenyl)-3-ferrocenyl-2-propen-1-one,175 µM
13,1-ferrocenyl-3-(1-Naphthalenyl)-2-propen-1-one,48.3 µM
14,"1-ferrocenyl-3-(2,4-Dichlorophenyl)-2-propen-1-one",29.4 µM
15,"1-ferrocenyl-3-(2,4-Difluorophenyl)-2-propen-1-one",23.2 µM
16,"1-ferrocenyl-3-(2,4-Dimethoxyphenyl)-2-propen-1-one",18 µM

row,Substance,IC50
1,1-ferrocenyl-3-(2-Chlorophenyl)-2-propen-1-one,42.4 µM
2,1-ferrocenyl-3-(2-Naphthalenyl)-2-propen-1-one,73.5 µM
3,1-ferrocenyl-3-(3-Chlorophenyl)-2-propen-1-one,36.2 µM
4,1-ferrocenyl-3-(3-Quinolinyl)-2-propen-1-one,18.2 µM
5,1-ferrocenyl-3-(3-pyridinyl)-2-propen-1-one,17 µM
6,1-ferrocenyl-3-(4-Chlorophenyl)-2-propen-1-one,14.5 µM
7,1-ferrocenyl-3-(4-Cyanophenyl)-2-propen-1-one,26.5 µM
8,1-ferrocenyl-3-(4-Fluorophenyl)-2-propen-1-one,12.1 µM
9,1-ferrocenyl-3-(4-Hydroxyphenyl)-2-propen-1-one,20.6 µM
10,1-ferrocenyl-3-(4-Methoxyphenyl)-2-propen-1-one,17 µM
11,1-ferrocenyl-3-(4-Methylphenyl)-2-propen-1-one,147 µM
12,1-ferrocenyl-3-(4-Nitrophenyl)-2-propen-1-one,5.1 µM
13,1-ferrocenyl-3-(4-Quinolinyl)-2-propen-1-one,14 µM
14,1-ferrocenyl-3-(4-Trifluoromethylphenyl)-2-propen-1-one,58.4 µM
15,1-ferrocenyl-3-(phenyl)-2-propen-1-one,19 µM

# Source: ChEMBL document CHEMBL1134883, “Antimalarial activity of ferrocenyl chalcones” (Bioorg Med Chem Lett, 2002)
